{"source": "patent US9802985B2", "about": "“Pharmaceutical composition for treatment of the pulmonary form of altitude sickness caused by lack of oxygen and reduced air pressure” (APEPTICO FORSCHUNG UND E[…], priority 2012, dated 2017)", "key": {"[1]": {"molecular_target": "T1, amiloride-sensitive epithelial sodium ion channel (ENaC) (Homo sapiens, UniProt P37088+P51168+P51170)", "T1 construct": "the human alveolar epithelial cell line A549 was used; endogenous in cells; host or cells: A549 (human alveolar epithelial cell line)", "T1 sequence (P51168 whole entry)": "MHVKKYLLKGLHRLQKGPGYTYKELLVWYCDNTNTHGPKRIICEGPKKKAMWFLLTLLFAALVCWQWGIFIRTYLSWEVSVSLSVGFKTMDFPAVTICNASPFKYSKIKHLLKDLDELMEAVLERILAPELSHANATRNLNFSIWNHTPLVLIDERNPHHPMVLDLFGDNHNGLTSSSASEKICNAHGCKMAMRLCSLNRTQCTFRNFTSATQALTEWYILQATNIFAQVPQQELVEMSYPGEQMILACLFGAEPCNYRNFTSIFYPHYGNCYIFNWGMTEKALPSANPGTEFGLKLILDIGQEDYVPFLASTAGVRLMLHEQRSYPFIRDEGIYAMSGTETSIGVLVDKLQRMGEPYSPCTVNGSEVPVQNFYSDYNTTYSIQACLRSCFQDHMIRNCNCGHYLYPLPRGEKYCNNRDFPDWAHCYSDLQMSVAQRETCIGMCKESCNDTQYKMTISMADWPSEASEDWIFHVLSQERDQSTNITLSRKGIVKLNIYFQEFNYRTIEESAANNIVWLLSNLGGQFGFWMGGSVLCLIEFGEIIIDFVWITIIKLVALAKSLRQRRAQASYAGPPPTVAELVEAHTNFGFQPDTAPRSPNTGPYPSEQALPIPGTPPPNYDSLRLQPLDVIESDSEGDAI", "T1 sequence (P37088 whole entry)": "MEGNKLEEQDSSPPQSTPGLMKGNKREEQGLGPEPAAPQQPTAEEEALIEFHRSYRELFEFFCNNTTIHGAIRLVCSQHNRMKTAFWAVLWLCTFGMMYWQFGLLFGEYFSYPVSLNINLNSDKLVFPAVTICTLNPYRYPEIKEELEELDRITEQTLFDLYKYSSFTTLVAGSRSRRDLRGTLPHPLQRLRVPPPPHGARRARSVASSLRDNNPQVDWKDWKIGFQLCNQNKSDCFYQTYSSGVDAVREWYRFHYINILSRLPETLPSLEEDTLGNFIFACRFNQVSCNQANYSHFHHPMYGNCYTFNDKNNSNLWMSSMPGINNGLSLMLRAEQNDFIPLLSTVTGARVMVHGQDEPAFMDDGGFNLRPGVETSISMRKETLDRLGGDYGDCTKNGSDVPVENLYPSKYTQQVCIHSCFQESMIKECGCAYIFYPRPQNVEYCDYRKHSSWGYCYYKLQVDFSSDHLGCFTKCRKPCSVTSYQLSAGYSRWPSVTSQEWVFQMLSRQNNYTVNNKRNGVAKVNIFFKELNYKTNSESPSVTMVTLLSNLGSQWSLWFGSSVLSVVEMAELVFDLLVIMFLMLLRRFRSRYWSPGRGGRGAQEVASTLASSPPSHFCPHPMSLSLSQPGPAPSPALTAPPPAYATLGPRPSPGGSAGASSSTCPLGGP", "T1 sequence (P51170 whole entry)": "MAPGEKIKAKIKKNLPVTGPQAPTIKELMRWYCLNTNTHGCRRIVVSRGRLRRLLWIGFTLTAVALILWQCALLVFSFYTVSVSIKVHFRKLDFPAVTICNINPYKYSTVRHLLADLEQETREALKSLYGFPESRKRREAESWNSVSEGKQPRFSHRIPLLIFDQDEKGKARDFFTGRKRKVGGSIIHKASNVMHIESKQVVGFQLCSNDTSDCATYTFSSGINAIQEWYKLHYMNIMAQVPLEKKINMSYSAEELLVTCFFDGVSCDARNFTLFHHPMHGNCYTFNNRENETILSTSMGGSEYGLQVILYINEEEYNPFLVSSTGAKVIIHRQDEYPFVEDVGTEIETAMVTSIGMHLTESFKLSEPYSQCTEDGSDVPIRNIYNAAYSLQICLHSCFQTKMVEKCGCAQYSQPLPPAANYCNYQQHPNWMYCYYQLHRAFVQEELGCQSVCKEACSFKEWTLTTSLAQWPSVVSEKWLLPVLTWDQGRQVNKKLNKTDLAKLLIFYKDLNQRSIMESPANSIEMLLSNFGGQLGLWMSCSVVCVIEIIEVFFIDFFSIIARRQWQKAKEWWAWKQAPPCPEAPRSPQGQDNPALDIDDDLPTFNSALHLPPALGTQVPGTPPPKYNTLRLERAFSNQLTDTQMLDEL", "assay": "whole cell patch clamp test with A549 cells (Example 3)", "type": "cell-based", "conditions": "for effect on the Na+ flow / ENaC (in words) / effect on the Na+ flow (in words): whole cell patch clamp; for effect on the Na+ flow / ENaC (in words): 300 nM in bath solution, n=3", "text": "According to patent application EP 2 009 023 A1, the so-called transepithelial electrical resistance (TEER) test was used for the screening of anti-lung oedema active ingredient candidates. The “TEER test” is not an established test for the prediction of fluid clearance in lung oedemas (this test can not be found in the relevant scientific literature and also has no relevance with regard to the cells being used (Calu-3 cells) in a model for gas exchange in the human lung). In the present example—in addition to the peptide according to the invention—the peptides […], […] and (cyclized) […] were investigated by means of a whole cell patch clamp assay, an established methodology for the measurement of ion movement over the cell membranes and especially for the measuring of the sodium transport over the cell membrane of alveolar epithelial cells (Eaton et al., Fed. Proc. 45 (1986), 2707; Hamill et al., Pflugers Arch. 391 (1981) 85-100. Here it was to be tested whether or not the peptides can activate the amiloride-sensitive epithelial sodium flow in lung cells.\nThe whole cell patch clamp test using A549 cells took place as described in Hazemi et al. (J. Med. Chem. 53 (2010), 8021-8029). […] In cases where an increase of the flow after addition of a given peptide was observed, an amiloride solution (to […] final concentration) was added to the bath solution—after the flow reached a stationary state —, in order to differentiate the amiloride-sensitive from the amiloride-insensitive flow. The amiloride-sensitive flow was then calculated by subtracting the flow value after addition of amiloride (amiloride-insensitive) from the flow value of the stationary state before the addition of amiloride. For each peptide, three experiments were carried out in different A549 cells (n=3)."}, "[2]": {"system": "pulmonary form of altitude sickness in rats", "assay": "experimental rat model of the pulmonary form of altitude sickness (physical activity under reduced oxygen and air pressure)", "type": "in vivo, rat (Sprague Dawley)", "text": "Physical exertion under conditions of reduced oxygen and air pressure, such as occur at high altitudes, are the 2 main factors which lead to the development of the pulmonary form of altitude sickness. Therefore, the selected rat model, in which the rats carried out physical activity under conditions of reduced oxygen and reduced air pressure, simulates a physically strenuous ascent to high altitudes. This takes place without carrying out a prior acclimatization. This corresponds to the scenario such as is to be found in the case of mountaineers who suffer from the pulmonary form of altitude sickness at high altitudes. In the model which was used, the rats develop the typical symptoms for the pulmonary form of altitude sickness, as is to be read in the “intensity of the pulmonary form of altitude sickness”, the increased protein concentration in the lung fluid and the histological appearance of the lung tissue. It is further to be noted that the lung damage in this model is not caused by administration of endotoxins, microbes or other agents which are damaging to the lung. […] Also, no specific strain of rat was used for this experiment. Therefore, this rat model is well suited to investigate a medicament for the treatment of the pulmonary form of altitude sickness.\nLaboratory rats (Sprague Dawley rats) carried out physical activity through external stimulation for 48 hours under conditions of reduced oxygen and air pressure. Here, the air pressure was reduced to a value below 430 Torr, so that a height of over 4500 m was simulated. A prior acclimatization of the rats to the height of over 4500 m was not carried out. During this time, the rats were able to undertake a 15-20 minute pause every 4 hours in order to take in water and food. […] The lungs were then removed and the intensity of the pulmonary form of altitude sickness was determined (FIG. 1), the protein content in the lung fluid was determined (FIG. 2) and the histological appearance of the lung tissue was determined (FIG. 3)."}, "[3]": {"system": "interleukin-6 (IL-6) secretion in human full blood", "assay": "ex vivo release of interleukin-6 from fresh human full blood cultures (ELISA)", "type": "cell-based", "conditions": "for Concentration of IL-6: human full blood, 24 hours, n=5", "experimental": "In this study, fresh full blood was used; this is a recognized prediction model for the assessment of the inflammatory reaction in vivo.\nThe aim of this study was to determine the pro-inflammatory signal capacity of the peptide SEQ ID NO: 1.\nFull blood (FB) cultures were carried out by pipetting 1 ml FB in depressions of 24-well plates. In each experiment, unstimulated and stimulated control cultures were included.\nIf possible, the substances and stimulants to be examined were always used in the same volume in each well in a given experiment, which is not greater than 10% of the total volume in a well. Unstimulated controls took place with PBS. Volume adjustment and dilutions for different treatments were likewise carried out with PBS.\nThe content of each well was mixed and the plates were incubated at 37° C. and 5% CO2 for 24 hours. After incubation, the content of each well was transferred into a fresh 1.5 ml microtube and centrifuged at 8000 to 9000×g for 15 minutes. The supernatant of each sample was divided individually to two 1.5 ml reaction vessels and stored at −20° C. until use.\nInterleukin-6 was quantified by means of a specific ELISA (Human IL-6 ELISA-Set, BD Biosciences, Cat. No. 555220) using an anti-human-IL-6 antibody as capture antibody, a biotinylated anti-human IL-6 detection antibody, avidin horseradish peroxidise conjugate as enzyme reagent and recombinant IL-6 as standard. Absorption measurement at 450 nm was carried out with the Packard Fusion reader.\nThe results of each plate were stored and evaluated with the fusion data analysis software. […]"}, "[4]": {"molecular_target": "T2, amiloride-sensitive sodium ion channel (ENaC) (Homo sapiens, UniProt P37088+P51168+P51170)", "T2 construct": "Macroscopic sodium ion flows were derived from human lung epithelial cells A549; endogenous in cells; host or cells: A549 (human lung epithelial cells)", "T2 sequence (P37088 whole entry)": "as the sequence (P37088 whole entry) above", "T2 sequence (P51168 whole entry)": "as the sequence (P51168 whole entry) above", "T2 sequence (P51170 whole entry)": "as the sequence (P51170 whole entry) above", "assay": "whole cell patch clamp on A549 cells, amiloride-sensitive sodium ion flow, EC50 (Example 4)", "type": "cell-based", "text": "The activity of the individual peptides is indicated as EC50 (in nM)."}, "[5]": {"conditions": "intratracheal 100, 300 and 600 μg/rat (especially 300 μg), 4 hours after administration"}}, "note": "Entries after “also recorded” stand apart in the source; their conditions may differ. No end group written: not given here."}
{"compound": "CGTKPIELGPDEPKAVC (not fully specified (bridges); also: cyclic)", "values": [{"measurement": "effect on the Na+ flow / ENaC (in words)", "setting": "[1]", "value": "no activating effect; also recorded: no effect on the flow; also recorded: none of the other three peptides had an influence on the flow"}]}
{"compound": "N=C(N)NC(=O)c1nc(Cl)c(N)nc1N", "note": "[amiloride]", "values": [{"measurement": "Na+ flow after subsequent addition of amiloride", "setting": "[1]; after AP301 240 nM, amiloride 100 mM in bath solution", "value": 36, "unit": "pA"}]}
{"compound": "TKPIELGPDEPKAV", "values": [{"measurement": "effect on the Na+ flow / ENaC (in words)", "setting": "[1]", "value": "no activating effect; also recorded: no effect on the flow; also recorded: none of the other three peptides had an influence on the flow"}]}
{"compound": "C[C@@H]1NC(=O)CNC(=O)[C@H](CCC(=O)O)NC(=O)[C@@H]2CCCN2C(=O)[C@H]([C@@H](C)O)NC(=O)[C@H](CCC(=O)O)NC(=O)[C@H](CCCNC(=N)N)NC(=O)[C@H](CCC(N)=O)NC(=O)CNC(=O)[C@@H](N)CSSC[C@@H](C(=O)O)NC(=O)[C@H](Cc2ccc(O)cc2)NC(=O)[C@H](Cc2c[nH]c3ccccc23)NC(=O)[C@@H]2CCCN2C(=O)[C@H](CCCCN)NC(=O)[C@H](C)NC(=O)[C@H](CCC(=O)O)NC1=O", "note": "[SEQ ID NO: 1]", "values": [{"measurement": "histological appearance of lung tissue", "setting": "[2]; 4 hours after intratracheal administration", "value": "comparable with healthy lung tissue of the control rats"}, {"measurement": "intensity of the pulmonary form of altitude sickness", "setting": "[2]; [5]", "value": "led to reduction of the intensity of the pulmonary form of altitude sickness"}, {"measurement": "protein concentration in the lung fluid", "setting": "[2]; [5]", "value": "led to reduction of the protein concentration in the lung fluid"}, {"measurement": "induction of IL-6 secretion (in words)", "setting": "[3]; human full blood cultures of five healthy donors, all tested concentrations (10 μg/ml to 1 ng/ml)", "value": "did not induce any detectable amount of IL-6 secretion; also recorded: induced no detectable level of IL-6"}, {"measurement": "TNF receptor binding activity (concluded from absent IL-6 release)", "setting": "[3]; human full blood ex vivo model", "value": "does not have TNF receptor binding activity"}, {"measurement": "Concentration of IL-6", "setting": "[3]", "value": "less than 0.5 pg/ml"}, {"measurement": "Concentration of IL-6", "setting": "[3]; test concentration 1 ng/ml", "value": "less than 0.5 pg/ml"}, {"measurement": "Concentration of IL-6", "setting": "[3]; test concentration 3 ng/ml", "value": "less than 0.5 pg/ml"}, {"measurement": "Concentration of IL-6", "setting": "[3]; test concentration 1 mg/ml", "value": "less than 0.5 pg/ml"}, {"measurement": "amiloride-sensitive Na+ flow after addition of the peptide", "setting": "[1]; 240 nM, increased from 50 pA, flow minus amiloride-insensitive flow", "value": 1037, "unit": "pA"}, {"measurement": "effect on the Na+ flow (in words)", "setting": "[1]; 240 nM in bath solution", "value": "induced an increase of the sodium flow over that of the control value"}, {"measurement": "effect on the Na+ flow (in words)", "setting": "[1]; 240 nM in bath solution, listed as AP301", "value": "immediate intensifying effect"}, {"measurement": "active Na+ flow after addition of the peptide (maximum)", "setting": "[1]; whole cell, clamped at -100 mV, 240 nM in bath solution, control value 86 pA±5 pA", "value": "1073±15", "unit": "pA"}]}
{"compound": "CGQREAPAGAAAKPWYC [SEQ ID NO: 19]", "values": [{"measurement": "EC50 (nM), cellular amiloride-sensitive sodium ion flow", "setting": "[4]; A549 cells, whole cell patch clamp, concentration at 50% of maximum increase of flow", "value": "No activity"}, {"measurement": "activity on the amiloride-sensitive sodium ion channel (in words)", "setting": "[4]; A549 lung cells", "value": "not active"}]}
{"compound": "QRETPEGAEAKPWY", "values": [{"measurement": "effect on the Na+ flow / ENaC (in words)", "setting": "[1]", "value": "no activating effect; also recorded: no effect on the flow; also recorded: none of the other three peptides had an influence on the flow"}]}
